The text below walks through data of US20240361317A1, “PROBES BASED ON VOLATILE ORGANIC COMPOUNDS AND USES THEREOF FOR THE DIAGNOSIS AND PROGNOSIS OF PATHOLOGICAL CONDITIONS” (Centre National de la Recherche Scientifique, priority 2021, published 2024).

Series [1] deals with α-Mannosidase. Nature of the series: Plasma protocol: labeled ethanol released in headspace of plasma after adding probe. As to conditions: Ethanol-D5; Cocktail 3; 10^−3/10^−4 mol·L^−1; Splitless. In kind it is biochemical, human. From the text: (§1) In advance, the enzymatic activities present in the blood samples of 7 healthy volunteers aged 20 to 30 years were studied by means of two cocktails of distinct probes (Table 6). This study had the objective (1) to set the final composition of the cocktails, (2) to define the concentrations of the probes to add to blood samples to obtain a significant isotope response knowing that this response would not be linked to spontaneous hydrolysis of the corresponding probes, (3) to define the optimal kinetic point, (4) to have an idea of the range of response of the isotopes of ethanol in healthy plasma samples.
(§2) Furthermore, two samples per patient were carried out in order to study the potential impact on the enzymatic activities here targeted of holding the samples at room temperature for several hours (an action which can take place in hospital conditions). Thus, the first sample was transformed into plasma and then frozen in the hour following the blood sampling. The second was reserved for 5 h at […], before treatment and then freezing. The samples were all stored at −20° C. until analysis.
(§3) According to the plasma protocol described above, the probes were used to detect the six enzymatic activities in these samples. […] The VOCs trapped on the SPME fiber are then analyzed by GC-TQMS according to the parameters defined in Tables 4 and 5. […]

The test system of series [2] is α-Glucosidase. Described as above. In kind it is biochemical, human. The following applies: Ethanol-D4; Cocktail 1; 10^−3/10^−4 mol·L^−1; Splitless.
Description: as §1, §2, §3

The target in series [3] is T1, β-glucuronidase of E. coli (Escherichia coli, UniProt P05804).
T1 construct: purchased Sigma Aldrich
T1 sequence (P05804 whole entry): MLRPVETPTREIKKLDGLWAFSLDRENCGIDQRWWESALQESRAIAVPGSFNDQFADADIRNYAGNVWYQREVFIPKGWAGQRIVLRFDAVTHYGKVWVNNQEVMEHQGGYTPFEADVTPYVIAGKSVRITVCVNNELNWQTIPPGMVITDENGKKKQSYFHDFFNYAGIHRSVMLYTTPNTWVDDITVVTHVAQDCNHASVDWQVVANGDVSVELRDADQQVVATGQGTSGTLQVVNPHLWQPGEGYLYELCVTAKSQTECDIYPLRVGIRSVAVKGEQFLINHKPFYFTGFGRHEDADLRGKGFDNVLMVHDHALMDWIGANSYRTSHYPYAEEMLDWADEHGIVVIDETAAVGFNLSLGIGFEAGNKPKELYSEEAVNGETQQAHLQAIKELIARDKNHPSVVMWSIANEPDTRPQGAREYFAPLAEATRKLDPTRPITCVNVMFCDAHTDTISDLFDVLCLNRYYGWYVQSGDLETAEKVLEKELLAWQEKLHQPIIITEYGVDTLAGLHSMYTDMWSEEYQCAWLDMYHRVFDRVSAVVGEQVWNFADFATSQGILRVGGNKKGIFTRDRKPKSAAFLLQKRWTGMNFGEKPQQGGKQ
Nature of the series: Limit of detection of model β-glucuronidase in plasma matrix with the VOC probe (SPME, GC-TQMS of ethanol-D5). In kind it is biochemical. On the procedure:
(§4) The plasma (approximately […]) is extracted and stored at −20° C. until analysis. An aliquot of 25 μL of plasma is sampled and inserted into a […] with an insert. This biological sample is added to 50 μL of acetate buffer solution (pH 5), protease inhibitor (1×) and 25 μL probe D5-ethyl-β-D-glucuronide at […]. After hermetic closure and agitation to the vortex of the vial, an SPME (SPME in semi-polar phase of the Car/PDMS, 1 cm long and 75 μm thick type with a 24 ga needle; Supelco) of the gas phase above the sample of a duration of 30 mi is carried out after 2 h, 4 h and 7 h of reaction. Each kinetic point requires a vial reaction, and is carried out in duplicate. The VOCs trapped on the SPME fiber are then analyzed by G-TQMS. GC-TMS detection of the ethanol isotopes (thus including ethanol-D5) is carried out with gas chromatography coupled to a triple quadrupole equipped with an E1 source (TSQ 9000, Thermo Fisher Scientific). The system is controlled by the software TSQ 9000 and the results are analyzed with the Xcalibur software (Thermo Fisher Scientific).
The limit of detection (LOD) of a model enzyme (β-glucuronidase of E. coli; liquid solution 50% glycerol, 140 U·mL^−1; Sigma Aldrich) in plasma matrix in the presence of probe D5-ethyl-β-D-glucuronide was then determined. For this, a plasma sample for which the activity of endogenous β-glucuronidase was not detectable, was added to enzyme concentrations ranging from […] to 1.10^−13 mol·L ^−1. The amount of ethanol-D5 released was monitored before adding probe and then after 2.5, 4.5 and 7.5 h of reaction at 30° C.

The target of series [4] is T2, β-glucuronidase (Homo sapiens, UniProt P08236).
T2 construct: from tissue; host or cells: human blood plasma
T2 sequence (P08236 23-651): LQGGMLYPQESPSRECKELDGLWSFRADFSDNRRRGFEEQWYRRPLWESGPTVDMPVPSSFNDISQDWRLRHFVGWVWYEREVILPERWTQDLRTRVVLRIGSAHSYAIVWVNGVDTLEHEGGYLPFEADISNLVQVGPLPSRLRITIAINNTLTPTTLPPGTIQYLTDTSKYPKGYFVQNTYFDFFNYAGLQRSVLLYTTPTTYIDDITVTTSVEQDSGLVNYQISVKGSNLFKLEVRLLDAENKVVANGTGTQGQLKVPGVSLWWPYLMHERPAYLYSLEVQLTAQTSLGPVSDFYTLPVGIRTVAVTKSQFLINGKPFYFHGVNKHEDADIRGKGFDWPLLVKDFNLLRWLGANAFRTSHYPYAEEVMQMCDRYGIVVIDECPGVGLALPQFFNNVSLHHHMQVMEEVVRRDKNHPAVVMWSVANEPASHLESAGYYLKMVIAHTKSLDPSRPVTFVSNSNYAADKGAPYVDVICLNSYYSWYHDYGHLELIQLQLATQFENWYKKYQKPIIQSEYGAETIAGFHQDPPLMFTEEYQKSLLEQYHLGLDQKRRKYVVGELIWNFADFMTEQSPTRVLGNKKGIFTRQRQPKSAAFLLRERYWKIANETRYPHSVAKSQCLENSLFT
Nature of the series: Plasma protocol: labeled ethanol released in headspace of plasma after adding probe. In kind it is biochemical. The method, then: as §4
Blood samples were taken by the caregiver associated with the oncological service, then collected and pretreated with the CIC. This study included samples of plasma taken from 11 patients suffering from breast cancer and 11 patients suffering from lung cancer.
These patients were diagnosed, but had at the time of sampling not yet received treatment. Their response was compared to that obtained from the plasma of 4 healthy patients. The results were compared to an experimental blank wherein the probe was added, but the enzyme was not present (FIG. 3). […]
After adding the 4 probes (according to the above protocol), the quantity of the 4 isotopes of the ethanol released above the samples of the patients was measured over time. […]
as §3

The subject of series [5] is β-glucuronidase present in the extracellular matrix. Nature of the series: Ethanol-D5 in headspace of mouse tumor (MDA-MB-231, KB) and healthy liver biopsies after adding probe. The following applies: probe 10^−9, 10^−8 and 10^−6 M. The method, then: Thus, tests during which the tumoral and healthy biopsies were placed in the presence of decreasing concentrations of D5-ethyl-β-D-glucuronide were carried out. The probe concentration retained corresponded to the concentration for which no response of healthy tissues was obtained, whereas an enzymatic response was observed on cancer tissues.
In the context of this work, two tumor biopsies, taken on mouse models, were studied (MDA-MB-231: human breast cancer cells, KB: human nasopharynx cancer cells). Two mouse liver biopsies were used as healthy tissues. Probe solutions at 10^−7, 10^−6, 10^−4 and 10^−2 M were prepared in a PBS buffer (137 mM NaCl, 2.7 mM KCl, 10 mM Na2HPO4, 1.8 mM KH2PO4, pH 7.4).
The biopsies were rinsed with 500 μL of PBS and then placed in a vial with an insert of 2 mL. A volume of 297 μL of PBS was added to the vial. The volatile molecules present in the headspace of the vial were trapped for 30 min in order to ensure that no ethanol-D5 was detected. Then 3 μL of probe at […] were added (final probe concentration in the vial of […]). After hermetic closure and vortex agitation, the volatile compounds were preconcentrated on SPME fiber (Car/PDMS, Supelco) for 30 min and then analyzed by GC-TQMS (analysis conditions described in Table 2).

For series [6], the system named is N-acetyl glucosaminidase. Nature of the series: Specificity study: hydrolysis of probes by the enzyme. In kind it is biochemical. On the procedure: (§5) The detection performances of this compound in the presence of ethanol and ethanol-D5 were then verified. […] The detection ranges of ethanol-D5 and ethanol-^13C-D5 were then carried out under SPME sampling conditions developed for biological samples (30 min of sampling at 30° C.). The two isotopes were present in mixtures in solution. The limits of detection obtained are respectively […]. The SPME-GC-TQMS method therefore allows a sharp differentiation of the two isotopes according to their mass fragmentation. An experimental study was then carried out in order to evaluate the affinity of the D5-ethyl-β-D-glucuronide and ^13C-D5-ethyl-N-acetylglucosamine for their respective enzyme (β-glucuronidase and N-acetyl glucosaminidase). For this, the efficacy of hydrolysis of each of these enzymes was studied in the presence of their respective probe (FIG. 6) then in the presence of the substrate probe of its partner (FIG. 7). […] In the presence of the two substrates, each enzyme gives a signal only for the probe specific to it (FIG. 8).

In series [7] the target is β-glucuronidase (Escherichia coli, UniProt P05804). The description is as above. In kind it is biochemical. On the procedure:
as §5

Series [8] can be described thus: Spontaneous hydrolysis of probes in buffer solution / during the reaction. In kind it is physicochemical. The following applies: acetate buffer, maximum concentration. The method, then: According to the plasma protocol described above, the probes were used to detect the six enzymatic activities in these samples. To summarize, an aliquot of 25 μL of plasma will be sampled and inserted into a 2 mL vial with an insert. This biological sample was added from 61.4 μL buffer solution (pH 5), 3.6 μL of protease inhibitor (1×) and 10 μL of one or the other of the cocktails. After hermetic closure and agitation to the vortex of the vial, an SPME (SPME in semi-polar phase of the Car/PDMS, 1 cm long and 75 μm thick type with a 24 ga needle, Supelco) of the gas phase above the sample of a duration of 30 min will be carried out after 2 h, 4 h and 7 h of reaction. Each kinetic point requires a vial reaction, and was carried out in duplicate. The VOCs trapped on the SPME fiber are then analyzed by GC-TQMS according to the parameters defined in Tables 4 and 5. Blank cocktails (cocktails in acetate buffer with no plasma) and plasma blanks (plasmas with an acetate buffer without cocktail) were carried out every day of analysis.
The responses of the probes in the plasma samples were compared to their responses in so-called “blank” samples and corresponding to the probes added to the acetate buffer alone.

Sequence of β-glucuronidase (Escherichia coli, UniProt P05804) (P05804 whole entry): as the sequence (P05804 whole entry) above

For the compound `CCC[C@H]1C[C@H](CC)[C@@H](C)[C@H](C)[C@@H]1C` [drawing 26], the “Plasma response range (u.a.)” value in series [1] is on record as 1000-50000 u.a.

In the case of `CCC[C@H]1C[C@H](CC)[C@@H](C)[C@H](C)[C@@H]1C` [drawing 22], the “Plasma response range (u.a.)” value in series [2] was 0-3000 u.a.

Regarding `[2H]C([2H])([2H])C([2H])([2H])O[C@@H]1O[C@H](C(=O)O)[C@@H](O)[C@H](O)[C@H]1O` [D5-ethyl-β-D-glucuronide], the “LOD lower than threshold value of the reference detection method (para-nitrophenol glucuronide, UV)” value in series [3] was 100 times. Also, in series [3] (plasma matrix), the “minimum quantity of detectable enzyme” value is reported as 1.10^−18 mol. In addition, the “concentration at which β-glucuronidase can be detected in plasma” value in series [3] (plasma, first results) is recorded as “less than 5.10^−13 M”. Besides, the “amount of ethanol-D5 released above plasma of patients with cancer compared to blanks and healthy patients” value in series [4] (11 breast cancer, 11 lung cancer patients, 4 healthy patients) is “significantly higher”. Moreover, in series [4] (cocktail of 4 probes, plasma of breast and lung cancer patients vs 4 healthy), the “discernment between healthy patients and cancer patients” value is “allow clear discernment between healthy patients and cancer patients”. Also, the “ethanol-D5 release for cancer tissues” value in series [5] (MDA-MB-231 and KB tumor biopsies) is reported as “release of this isotope was detected”. In addition, in series [5] (mouse liver biopsies), the “ethanol-D5 response on healthy tissues” value is on record as “no response”. In addition, the “hydrolysis of probe by N-acetyl glucosaminidase (labeled ethanol signal)” value in series [6] is on record as “does not hydrolyze”. Besides, the “hydrolysis of probe by β-glucuronidase (labeled ethanol signal)” value in series [7] is on record as “has hydrolyzed its own probe”. The “spontaneous hydrolysis when placing in buffer solution” value in series [8] is recorded as “significant spontaneous hydrolysis”.
